Data on 25 molecules can be found in patent publication US20260200926A1, “TREM2 MODULATORS” (Muna Therapeutics ApS, priority 2022, published 2026).

The assay has as its target T1, Human TREM2 (Homo sapiens, UniProt Q9NZC2).
T1 construct: expressed in transfected cells
Nature of the assay: Human TREM2 activity: cellular phosphorylation of Syk (AlphaLISA SureFire Ultra p-SYK) in HEK293/DAP12+TREM2 stable cell line. Type of assay: cell-based. To be noted: for Emax: HEK293, maximal response relative to reference agonist example 1B (remaining examples), read-out: Emax; for EC50: phospho-Syk AlphaLISA signal, HEK293/DAP12+TREM2 cells, concentration giving 50% of maximal response, read-out: EC50. In short, it runs like this:
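The read-out was p-Syk (Tyr525/526), measured by AlphaLISA in lysates of a stable HEK293/DAP12+TREM2 clone. Cells (10,000/well, plated the day before) received compound for 30 min at 37 °C. Dosing used 8 points in quadruplicate, top 100 μM with 1:6 dilution, 0.5% final DMSO.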

T1 sequence (Q9NZC2 19-230): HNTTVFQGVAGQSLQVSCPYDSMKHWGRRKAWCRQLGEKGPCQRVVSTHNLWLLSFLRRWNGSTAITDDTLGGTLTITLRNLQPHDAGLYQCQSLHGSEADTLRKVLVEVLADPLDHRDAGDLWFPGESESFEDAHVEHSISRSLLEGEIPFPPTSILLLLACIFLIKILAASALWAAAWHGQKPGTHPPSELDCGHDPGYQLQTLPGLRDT
T1 sequence (O43914 22-113 partner): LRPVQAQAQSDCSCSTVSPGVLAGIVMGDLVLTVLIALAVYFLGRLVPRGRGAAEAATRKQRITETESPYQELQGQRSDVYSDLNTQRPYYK

As to `Cc1nc2c(-c3ccc(Cl)cc3F)nc(N3CCC[C@@H](Oc4cnn(C)c4)C3)nc2c(=O)n1C` [Example 76, (R)-8-(4-chloro-2-fluorophenyl)-2,3-dimethyl-6-(3-((1-methyl-1H-pyrazol-4-yl)oxy)piperidin-1-yl)pyrimido[5,4-d]pyrimidin-4 (3H)-one], the Emax is 75 to 110% and the EC50 is 0.1 to 1 µM.
Consider `Cc1nc2c(-c3ccc(Cl)cc3F)cc([C@@H]3CCO[C@H](c4cnn(C5CC5)c4)C3)cc2c(=O)n1C` (single isomer, unassigned) [Example 119A], for which the maximal response (Emax) was below 75% and the EC50 is 0.1 to 1 µM.
For `Cc1nc2c(-c3ccc(Cl)cc3F)nc(N3CCOC(CN(C)C)C3)nc2c(=O)n1C` (centres unmarked) [Example 53, 8-(4-chloro-2-fluorophenyl)-6-(2-((dimethylamino)methyl)morpholino)-2,3-dimethylpyrimido[5,4-d]pyrimidin-4(3H)-one], in that order: 75 to 110% and 0.1 to 1 µM.
The matching figures for `Cc1nc2c(-c3ccc(Cl)cc3F)nc(N3CCO[C@@H](c4cnn(C(F)(F)F)c4)C3)nc2c(=O)n1C` (single isomer, unassigned) [Example 107B]: 75 to 110% and 0.1 to 1 µM.
For `Cc1nc2c(-c3ccc(Cl)cc3F)nc(N3C[C@@H](c4cnn(C)c4)OC4(CCC4)C3)cc2c(=O)n1C` (single isomer, unassigned) [Example 151A], in that order: 75 to 110% and 0.001 to 0.01 µM.
`Cc1nc2c(-c3ccc(C(F)(F)F)nc3)nc(N3C[C@@H](c4cnn(C5CC5)c4)O[C@@H](C)C3)cc2c(=O)n1C` (single isomer, unassigned) [Example 184A]: the Emax was 75 to 110% and the EC50 was 0.001 to 0.01 µM.
On to `Cc1nc2c(-c3ccc(Cl)cc3F)nc([C@H]3CCO[C@@H](c4cnn(C5CC5)c4)C3)nc2c(=O)n1C` (single isomer, unassigned) [Example 24B], for which the Emax is below 75% and the EC50 was in the range of 0.1 to 1 µM.
The matching figures for `CNC(=O)C1CN(c2nc(-c3ccc(Cl)cc3F)c3nc(C)n(C)c(=O)c3n2)CCO1` (centres unmarked) [Example 49, 4-(4-(4-chloro-2-fluorophenyl)-6,7-dimethyl-8-oxo-7,8-dihydropyrimido[5,4-d]pyrimidin-2-yl)-N-methylmorpholine-2-carboxamide]: below 75% and above 1 µM.
As to `Cc1nc2c(-c3ccc(Cl)cc3F)nc(N3C[C@@H](c4cnn(C)c4)OC4(CC4)C3)cc2c(=O)n1C` (single isomer, unassigned) [Example 144A], the Emax is 75 to 110% and the EC50 is 0.001 to 0.01 µM.
For `Cc1nc2c(-c3ccc(Cl)cc3F)nc(N3C[C@H](c4cnn(C)c4)OC4(CCC4)C3)nc2c(=O)n1C` (single isomer, unassigned) [Example 109B], in that order: below 75% and 0.1 to 1 µM.
As to `Cc1nc2c(-c3ccc(Cl)cc3F)nc(N3CC[C@H](Oc4cnn(C)c4)C3)nc2c(=O)n1C` [Example 74, (S)-8-(4-chloro-2-fluorophenyl)-2,3-dimethyl-6-(3-((1-methyl-1H-pyrazol-4-yl)oxy)pyrrolidin-1-yl)pyrimido[5,4-d]pyrimidin-4 (3H)-one], the Emax is below 75% and the EC50 was above 1 µM.
With `Cc1nc2c(-c3ccc(C(F)(F)F)cc3F)nc(N3CCO[C@@H](c4cnn(C)c4)C3)nc2c(=O)n1C` (single isomer, unassigned) [Example 25B], the Emax was below 75% and the EC50 was in the range of 0.01 to 0.1 µM.
The matching figures for `Cc1nc2c(-c3ccc(Cl)cc3F)nc(N3CCN(CCF)C(c4cnn(C)c4)C3)nc2c(=O)n1C` (centres unmarked) [Example 31, 8-(4-chloro-2-fluorophenyl)-6-(4-(2-fluoroethyl)-3-(1-methyl-1H-pyrazol-4-yl)piperazin-1-yl)-2,3-dimethylpyrimido[5,4-d]pyrimidin-4(3H)-one]: 75 to 110% and 0.01 to 0.1 µM.
The matching figures for `Cc1n[nH]c(C2CN(c3nc(-c4ccc(Cl)cc4F)c4nc(C)n(C)c(=O)c4n3)CCO2)n1` (centres unmarked) [Example 46, 8-(4-chloro-2-fluorophenyl)-2,3-dimethyl-6-(2-(3-methyl-1H-1,2,4-triazol-5-yl)morpholino)pyrimido[5,4-d]pyrimidin-4(3H)-one]: below 75% and 0.1 to 1 µM.
As to `Cc1nc2c(-c3ccc(C(F)(F)F)cc3F)nc(N3CCO[C@H](c4cnn(C)c4)C3)nc2c(=O)n1C` (single isomer, unassigned) [Example 25A], the maximum response (Emax) was below 75% and the EC50 was 0.01 to 0.1 µM.
The matching figures for `Cc1nc2c(-c3ccc(Cl)cc3F)nc(N3CC(c4cnn(C)c4)OC(C)(C)C3)nc2c(=O)n1C` (centres unmarked) [Example 62, 8-(4-chloro-2-fluorophenyl)-6-(2,2-dimethyl-6-(1-methyl-1H-pyrazol-4-yl)morpholino)-2,3-dimethylpyrimido[5,4-d]pyrimidin-4 (3H)-one]: below 75% and 0.001 to 0.01 µM.
The matching figures for `Cc1nc2c(-c3ccc(C(F)(F)F)cc3F)nc(N3C[C@@H](C)O[C@@H](c4cnn(C5CC5)c4)C3)nc2c(=O)n1C` (single isomer, unassigned) [Example 195B]: 75 to 110% and below 0.001 µM.
On to `Cc1nc2c(-c3ccc(Cl)cc3F)cc(N3C[C@@H](c4cnn(C)c4)OC(C)(C)C3)nc2c(=O)n1C` (single isomer, unassigned) [Example 142A], for which the Emax was below 75% and the EC50 fell in the range of 0.1 to 1 µM.
As to `Cc1nc2c(-c3cc(F)c(F)cc3F)nc(N3CCO[C@H](c4cnn(C)c4)C3)cc2c(=O)n1C` (single isomer, unassigned) [Example 130B], the maximal effect (Emax) was below 75% and the EC50 lay in the range of 0.1 to 1 µM.
For `Cc1nc2c(-c3ccc(Cl)cc3F)nc(N3CCO[C@@H](c4cnn(C)c4)C3)cc2c(=O)n1C` (single isomer, unassigned) [Example 125A], the Emax was in the range of 75 to 110% and the EC50 fell in the range of 0.01 to 0.1 µM.
`Cn1c(C(F)(F)F)nc2c(-c3ccc(F)cc3F)nc([C@@H]3CCO[C@H](c4cnn(C5CC5)c4)C3)nc2c1=O` (single isomer, unassigned) [Example 196A]: the maximum response (Emax) was in the range of 75 to 110% and the EC50 is 0.001 to 0.01 µM.
Turning to `Cc1nc2c(-c3ccc(Cl)cc3F)nc([C@H]3CCO[C@@H](c4cnn(C)c4)C3)nc2c(=O)n1C` (single isomer, unassigned) [Example 68], the Emax is 75 to 110% and the concentration for a half-maximal effect (EC50) was above 1 µM.
The matching figures for `Cc1nc2c(-c3ccc(Cl)cc3F)nc(N3CCCc4ccncc4C3)nc2c(=O)n1C` [Example 86, 8-(4-chloro-2-fluorophenyl)-2,3-dimethyl-6-(5,6,7,9-tetrahydro-8H-pyrido[3,4-c]azepin-8-yl)pyrimido[5,4-d]pyrimidin-4(3H)-one]: below 75% and above 1 µM.
For `Cc1nc2c(-c3cc(F)c(F)cc3F)nc([C@H]3CCO[C@@H](c4cnn(C5CC5)c4)C3)nc2c(=O)n1C` (single isomer, unassigned) [Example 97B], in that order: below 75% and above 1 µM.
As for `COC1CN(C2CCCN(c3nc(-c4ccc(Cl)cc4F)c4nc(C)n(C)c(=O)c4n3)C2)C1` (centres unmarked) [Example 79, 8-(4-chloro-2-fluorophenyl)-6-(3-(3-methoxyazetidin-1-yl)piperidin-1-yl)-2,3-dimethylpyrimido[5,4-d]pyrimidin-4 (3H)-one], the Emax is below 75% and the EC50 is above 1 µM.
